Test results: patent US20230391838A1 (priority 2020, published 2023)
*1 amine or outer side, *2 acyl side, *3 side chain or, on linkers, in order; H or OH if unused. Where a SMILES comes first, the peptide text is derived from it. Bridges are numbered along the chain shown (N, C = ends). [ ]: non-standard residue; d: D form. Tyr(3-I) = N[C@@H](Cc1ccc(O)c(I)c1)C(=O)O; β3hY = N[C@H](CC(=O)O)Cc1ccc(O)cc1; CH2 = C([*:1])[*:2]

Details: pH 7.4

C[C@@H](O)[C@@H]1NC(=O)[C@@H]2CSCSC[C@@H](C(=O)N[C@H](CC(=O)N[C@@H](CCCNC(=N)N)C(=O)O)Cc3ccc(O)cc3)NC(=O)[C@H](CCC(N)=O)NC(=O)[C@H](Cc3ccc(O)c(I)c3)NC(=O)[C@H](CCCNC(=N)N)NC(=O)[C@H](CSSC[C@H](NC(=O)CN)C(=O)N2)NC(=O)[C@H](CCCNC(=N)N)NC(=O)[C@@H]2CCCN2C(=O)[C@H](CC(=O)O)NC1=O [RgIA-5524, G C^I C^II T D P R C^III R (iY) Q C^IV (bhY) R] (H-GCCTDPRCR[Tyr(3-I)]QC[β3hY]R-OH; disulfide 2-8; linker 3-12 via CH2)
disulfide scrambling in presence of reduced glutathione (in words): largely suppress disulfide scrambling
